Data reported in patent US20080146662A1, “Methods and compositions for treatment of cancer pain” (priority 2002, published 2008).

How the values were obtained:
Format in all cases: in vivo
[1] = test system: rat model of bone cancer pain (MRMT-1 rat mammary gland carcinoma cells); test: Radiologically observed structural changes and bone mineral density in rat model of bone cancer pain; settings: for radiologically observed structural changes / loss of bone mineral density compared to vehicle treated animals: day 20
Procedure: Adult female rats are given intra-tibial injections of MRMT-1 rat mammary gland carcinoma cells (3 μl, 10^7 cells/ml).

COX-1 = target: T1, COX-1 (Rattus norvegicus, UniProt Q63921); test: Thromboxane B2 levels in samples from treated animals (COX-1 inhibition)
T1 construct: The levels of thromboxane B2 in the samples from COX189-treated animals; from tissue; host or cells: samples from treated rats
T1 sequence (Q63921 27-602): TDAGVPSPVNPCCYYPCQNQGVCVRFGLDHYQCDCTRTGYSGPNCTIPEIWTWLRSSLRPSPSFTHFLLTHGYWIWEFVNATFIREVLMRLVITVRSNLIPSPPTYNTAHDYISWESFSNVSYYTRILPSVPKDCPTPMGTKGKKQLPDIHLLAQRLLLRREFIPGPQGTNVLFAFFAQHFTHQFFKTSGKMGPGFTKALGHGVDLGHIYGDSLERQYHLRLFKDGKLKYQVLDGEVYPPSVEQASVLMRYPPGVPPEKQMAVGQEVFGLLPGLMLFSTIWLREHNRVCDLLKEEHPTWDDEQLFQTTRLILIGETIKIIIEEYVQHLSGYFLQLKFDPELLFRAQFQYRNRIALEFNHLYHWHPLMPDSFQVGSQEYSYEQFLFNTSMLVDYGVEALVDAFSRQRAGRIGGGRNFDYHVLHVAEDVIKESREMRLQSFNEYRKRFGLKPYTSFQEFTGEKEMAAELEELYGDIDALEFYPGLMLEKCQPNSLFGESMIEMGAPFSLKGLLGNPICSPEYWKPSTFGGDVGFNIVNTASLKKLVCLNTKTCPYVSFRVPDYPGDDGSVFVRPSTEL

[2] = test system: rat model of bone cancer pain (MRMT-1 rat mammary gland carcinoma cells); test: Mechanical allodynia (static and dynamic) in rat model of bone cancer pain; settings: day 20; for static allodynia (punctuate stimulus), ipsilateral paw: 90 minutes after the last administration
Procedure: (§1) Adult female rats are given intra-tibial injections of MRMT-1 rat mammary gland carcinoma cells (3 μl, 10^7 cells/ml). These animals gradually develop mechanical hyperalgesia, mechanical allodynia (skin sensitivity to non-noxious stimuli) and hind limb sparing, beginning on day 12-14 following cell injection.

[3] = test system: rat model of bone cancer pain (MRMT-1 rat mammary gland carcinoma cells); test: Weight-bearing difference in rat model of bone cancer pain (intra-tibial MRMT-1 cells); settings: for weight-bearing difference between contralateral and ipsilateral paw: vs vehicle
Procedure: as §1, with “injection. COX-2 inhibitors, 5-methyl-2-(2′-chloro-6′-fluoroanilino)-phenylacetic acid (hereinafter referred to as COX189) (10 and 30 mg/kg p.o.) and valdecoxib (30 mg/kg p.o.) are administered as described below and the results obtained compared with vehicle treated controls.” for “injection.”
Intra-tibial inoculation of MRMT-1 cells induces a time-dependent hypersensitivity in the ipsilateral limb, measured as a shift in body weight to the contralateral limb. The increase in weight-bearing difference between contralateral and ipsilateral paw (weight shift from the affected to the unaffected limb) is evident by day 14 post-inoculation and continues to increase until day 20.

thromboxane B2 level, % of the levels in the vehicle-control animals (COX-1; 10 mg/kg) [%] | thromboxane B2 level, % of the levels in the vehicle-control animals (COX-1; 30 mg/kg) [%] | Compound | radiologically observed structural changes ([1]; 10 mg/kg repeated) | loss of bone mineral density compared to vehicle treated animals ([1]; 30 mg/kg repeated) | radiologically observed structural changes ([1]; 30 mg/kg repeated) | radiologically observed structural changes in an animal model of bone cancer pain ([1]; general statement, no dose given) | dynamic allodynia (light stroking of the skin), ipsilateral paw ([2]; 10 mg/kg p.o. repeated) | static allodynia (punctuate stimulus), ipsilateral paw ([2]; 10 mg/kg p.o. repeated) | dynamic allodynia (light stroking of the skin), ipsilateral paw ([2]; 30 mg/kg p.o. repeated) | static allodynia (punctuate stimulus), ipsilateral paw ([2]; 30 mg/kg p.o. repeated) | weight-bearing difference between contralateral and ipsilateral paw ([3]; 10 mg/kg p.o. repeated from day 10 post-inoculation, days 14, 17 and 20, measured 1 hour after drug administration) | weight-bearing difference between contralateral and ipsilateral paw ([3]; 30 mg/kg p.o. repeated from day 10 post-inoculation, days 14, 17 and 20, measured 1 hour after drug administration) | dose dependence of the effect on weight-bearing difference ([3]; 10 versus 30 mg/kg p.o.) | weight-bearing difference between contralateral and ipsilateral paw ([3]; 30 mg/kg p.o. repeated, day 20)
87.4±17.7 | 64.5±8.0 | Cc1ccc(Nc2c(F)cccc2Cl)c(CC(=O)O)c1 [COX189, 5-methyl-2-(2′-chloro-6′-fluoroanilino)-phenylacetic acid] | significantly inhibits | significantly inhibit | significantly inhibits | inhibit the radiologically observed structural changes | tendency to reduce | significantly reverses | reaches statistical significance | significantly reverses | significantly attenuates | significantly attenuates | not dose-dependent | –
– | 77.4±27.8 | Cc1onc(-c2ccccc2)c1-c1ccc(S(N)(=O)=O)cc1 [valdecoxib, reference compound] | – | no significant effect | no significant effect | – | – | – | tendency to reduce | significantly reverses | – | – | – | significant
